According to patent US20110158907A1, “DIPHENYL-HETEROARYL DERIVATIVES AND THEIR USE FOR BINDING AND IMAGING AMYLOID PLAQUES” (The Trustees of the Univeristy of Pennsylvania, priority 2007, published 2011):
Like-named read-outs stand apart in the source and are kept apart here. Each block holds one molecule with its values, some of them ahead of it.

Experiments:
fibrillar Aβ aggregates = fibrillar Aβ aggregates (Homo sapiens, UniProt P05067); details: read-out: inhibition constants (Ki) for binding to fibrillar Aβ aggregates; cited from earlier work
fibrillar Aβ aggregates, sequence (P05067 672-711 limits assumed): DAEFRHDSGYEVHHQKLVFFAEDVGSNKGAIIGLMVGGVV

[1] = Organ distribution of ^123I-33 in normal mice; assay type: in vivo, ICR mice; details: i.v.; for Biodistribution Brain / % total counted / Biodistribution Pancreas / Biodistribution Pancrease: normal male mice
Protocol: Total activities of blood were calculated under the assumption that they were 7% of the total body weight.

CNS receptors = assay: Selectivity against CNS receptors; details: cell wraps r7-r10: No high affinity binding to any CNS receptors
Amyloid Plaque [2] = target: T1, Amyloid Plaque (Homo sapiens, UniProt P05067); assay: Inhibition of ^125I-IMPY binding in AD brain homogenates; details: read-out: Binding Affinity (Ki vs. ^125I-IMPY)
T1 sequence (P05067 672-711 limits assumed): as above
Protocol: Postmortem brain tissue was obtained and neuropathological diagnosis was confirmed in accordance with the NIA-Reagan Institute Consensus Group criteria. Homogenates were then prepared from dissected gray matter, pooled in phosphate buffered saline and aliquoted into 1-ml portions (100 mg wet tissue/ml), which could be stored at −70° C. for 3-6 months without loss of binding signal.
For the binding assays brain homogenates were incubated with ^125I-IMPY (0.04-0.06 nM diluted in phosphate buffered saline (PBS)) and test compound (10^−5-10^−10 M diluted in PBS containing 0.1% bovine serum albumin (BSA)). Nonspecific binding was defined in the presence of IMPY (600 nM). The bound and free radioactivity was separated by vacuum filtration followed by 2×3 ml washes of PBS. Filters containing the bound ^125I ligand were assayed in a gamma counter.

Amyloid Plaque [3] = target: T1, Amyloid Plaque; details: AD brain homogenates; read-out: Binding Affinity (Ki vs. ^125I-IMPY), published values; cited from earlier work
[4] = mouse; for brain washout index (brain2 min/brain30 min) / remaining in the brain: in vivo; for remaining in the brain: 2 h
Protocol: (§2) While under isoflurane anesthesia, 0.15 mL of a 0.1% bovine serum albumin solution containing [^125I] or [^18F]tracers (5-10 μCi) was injected directly into the tail vein of ICR mice (22-25 g, male). The mice (n=3 for each time point) were sacrificed by cervical dislocation at designated time-points post injection. The organs of interest were removed and weighed, and the radioactivity was counted with an automatic gamma counter. The percentage dose per organ was calculated by a comparison of the tissue counts to suitably diluted aliquots of the injected material. The total activity of the blood was calculated under the assumption that it is 7% of the total body weight. The % dose/g of samples was calculated by comparing the sample counts with the count of the diluted initial dose.

[5] = tested on: Aβ plaques in AD brain sections; assay: In vitro film autoradiography of macroarray brain sections; assay type: binding, human
Text: FIG. 5 depicts in vitro film autoradiography of macroarray brain sections constructed from AD and control cases. The Aβ plaques were clearly visualized with low background labeling with two preferred radiofluorinated probes of the present invention.
(§1) To compare different probes using similar sections of human brain tissue, human macro-array brain sections from 6 confirmed AD cases and one control subject were assembled. The presence and localization of plaques on the sections was confirmed with immunohistochemical staining with monoclonal Aβ antibody 4G8 (Sigma). The frozen sections were incubated with [^125I] and [^18F]tracers (200,000-250,000 cpm/200 μL) for 1 h at room temperature. The sections were then dipped in saturated lithium carbonate in 40% EtOH (two two-minute washes) and washed with 40% EtOH (one two-minute wash) followed by rinsing with water for 30 sec. After drying, the ^125I- or ^18F-labeled sections were exposed to Kodak Biomax MR film overnight.
[^18F]tracers: Brain sections from AD subjects were obtained by freezing the brain in powdered dry ice and cut into 20 micrometer-thick sections. The sections were incubated with [^18F]tracers (200,000-250,000 cpm/200 μl) for 1 hr at room temperature. The sections were then dipped in saturated Li2CO3 in 40% EtOH (two two-minute washes) and washed with 40% EtOH (one two-minute wash) followed by rinsing with water for 30 sec. After drying, the ^18F-labeled sections were exposed to Kodak MR film overnight. The results are depicted in the film in FIG. 2.
as §1, with “[^125I]tracers: To” for “To”, “The” for “The frozen”, “[^125I]tracers” for “[^125I] and [^18F]tracers”, “Li2CO3” for “lithium carbonate”, “^125I-labeled” for “^125I- or ^18F-labeled”
A macro-array block was constructed using postmortem human brain samples consisting of seven confirmed AD cases. […] In vitro film autoradiography was carried out using these novel ^125I or ^18F labeled diphenyltriazole probes. […] The labeling pattern was consistent with that observed by immunohistochemical labeling with an antibody (4G8) specific for Aβ (data not shown).

[6] = tested on: Aβ plaques in AD brain tissue homogenates; assay: Specific binding of radiolabeled ligands to AD and control brain tissue homogenates; design: species or system human; details: for specific binding, gray matter homogenates of AD / specific binding, white matter homogenates of AD brain: 0.06 nM [^125I]probe, 0.5 nM [^18F]probe
Protocol: FIG. 6 depicts specific binding of preferred embodiments of the present invention to pooled AD and control brain tissue homogenates. Gray and white matters were dissected from the cortical regions. Higher specific binding was detected mainly in gray matter of AD. Relatively low binding was measured in white matter homogenates of AD as well as in gray and white matter homogenates of the control brain.
AD postmortem brain tissues were obtained from University of Washington Alzheimer's Disease Research Center. The neuropathological diagnosis was confirmed by current criteria (NIA-Reagan Institute Consensus Group, 1997). Homogenates were then prepared from dissected gray matters from four pooled AD patients in phosphate buffered saline (PBS, pH 7.4) at the concentration of approximately 100 mg wet tissue/ml (motor-driven glass homogenizer with setting of 6 for 30 sec). The homogenates were aliquoted into 1 mL-portions and stored at −70° C. for up to 2 years without loss of binding signal.
Similarly, the specific binding of radioiodinated and radiofluorinated ligands (0.06 nM for [^125I]probe and 0.5 nM for [^18F]probe to homogenates, prepared from the gray and white matters of AD and control brain tissues, were carried out as described above. Nonspecific binding was determined in the presence of 2 μM of the corresponding nonradioactive probes.
To further characterize the specificity of plaque binding, we evaluated [^125I]10a and [^18F]17a by a direct in vitro binding assay using homogenates (from different brain regions) prepared from AD and control brain tissues.

[7] = Partition coefficient (1-octanol/buffer); assay type: physicochemical; details: 1-octanol / 0.1 M phosphate buffer pH 7.4
Protocol: Partition coefficients were measured by mixing the [^125I] or [^18F]tracer with 3 g each of 1-octanol and buffer (0.1 M phosphate, pH 7.4) in a test tube. The test tube was vortexed for 3 min at room temperature, followed by centrifugation for 5 min. Two weighed samples (0.5 g each) from the 1-octanol and buffer layers were counted in a well counter. The partition coefficient was determined by calculating the ratio of cpm/g of 1-octanol to that of buffer. Samples from the 1-octanol layer were re-partitioned until consistent partitions of coefficient values were obtained. The measurement was done in triplicate and repeated three times.
Partition coefficients were measured by mixing ^123I-33 with 3 g each of 1-octanol and buffer (0.1 M phosphate, pH 7.4) in a test tube. The test tube was vortexed for 3 min at room temperature, followed by centrifugation for 5 min. Two weighed samples (0.5 g each) from the 1-octanol and the buffer layer were counted in a well counter. The partition coefficient was determined by calculating the ratio of cpm/g of 1-octanol to that of the buffer. Samples from the 1-octanol layer were repartitioned until consistent partitions of,coefficient values were obtained from the third partition. The measurement was done in triplicate and repeated three times.

[8] = Organ distribution of [^125I] or [^18F]tracers in normal mice
Protocol: as §2

[9] = Estimate of human dosimetry extrapolated from the mouse data; details: proposed 5 mCi human dose
Protocol: When administered i.v. to male mice, ^123I-33 entered the brain quickly and reached a peak brain concentration of 3.7% dose/g within 2 min post administration and fell to 0.25% dose/g within 60 min. […] At the proposed 5 mCi human dose the lower large intestine is estimated to receive approximately 3.8 rem, while the upper large intestine is estimated to receive approximately 3.3 rem of exposure.

Aβ plaques = assay: Labeling of Aβ plaques in AD sections by ^123I-33 at tracer concentrations; assay type: binding, human

SMILES: O=C(O)c1cc(/N=N/c2ccc(-c3ccc(/N=N/c4ccc(O)c(C(=O)O)c4)cc3)cc2)ccc1O [CG, chrysamine-G]
- Ki (fibrillar Aβ aggregates): 370 nM

SMILES: CN(C)c1ccc(-c2cn(-c3ccc(OCCO)c([123I])c3)nn2)cc1 [Compound 33, 2-(4-(4-(4-(dimethylamino)phenyl)-1H-1,2,3-triazol-1-yl)-2-iodophenoxy)ethanol]
- Biodistribution Brain ([1]; 2 min): 3.69 ± 0.14 % dose/g
- Biodistribution Brain ([1]; 60 min): 0.25 ± 0.03 % dose/g
- Selectivity (CNS receptors): No high
- Ki (Amyloid Plaque [2]): 7.5 ± 0.5 nM

SMILES: CC(=C(C#N)C#N)c1ccc2cc(N(C)CCF)ccc2c1 [FDDNP, 2-(1-{6-[(2-fluoroethyl)(methyl)amino]-2-naphthyl}ethylidene)malononitrile]
- Ki (Amyloid Plaque [3]): 239 nM

SMILES: CNc1ccc(-c2cn(-c3ccc([125I])cc3)nn2)cc1 [[^125I]10a]
- white matter (background) labeling [5]: significant white matter labeling
- specific binding signal, homogenates of control brain tissues (gray and white matters) [6]: low
- specific binding, gray matter homogenates of AD [6]: detected predominantly in the gray matter homogenates of AD
- specific binding, white matter homogenates of AD brain [6]: very low or nonexistent
- brain washout index (brain2 min/brain30 min) [8]: 5.66
- log P [7]: 3.0

SMILES: CN(C)c1ccc(-c2cn(-c3ccc([125I])cc3)nn2)cc1 [[^125I]10b]
- brain washout index (brain2 min/brain30 min) [8]: 3.72
- log P [7]: 3.4

Second part, led by results:

- bone uptake (in vivo defluorination) [4]: 4.64 % dose/g
- brain washout index (brain2 min/brain30 min) [4]: 2.34
- remaining in the brain [4]: 1-2 % dose/g
- specific binding signal, homogenates of control brain tissues (gray and white matters) [6]: low
- specific binding, white matter homogenates of AD brain [6]: very low or nonexistent
- log P [7]: 2.7
SMILES: CN(C)c1ccc(-c2cn(-c3ccc(OCC[18F])cc3)nn2)cc1 [[^18F]17a]
- Aβ plaque labeling [5]: most distinctive Aβ plaque-labeling
- white matter (background) labeling [5]: minimal level of background in the white matter areas
- specific binding, gray matter homogenates of AD [6]: detected predominantly in the gray matter homogenates of AD

- bone uptake (in vivo defluorination) [4]: 18.59 % dose/g
- brain washout index (brain2 min/brain30 min) [4]: 2.31
- remaining in the brain [4]: 1-2 % dose/g
- log P [7]: 2.7
SMILES: CN(C)c1ccc(-c2cn(-c3ccc(OCCC[18F])cc3)nn2)cc1 [[^18F]17b]
- Aβ plaque labeling [5]: most distinctive Aβ plaque-labeling
- white matter (background) labeling [5]: minimal level of background in the white matter areas

- estimated exposure of lower large intestine [9]: approximately 3.8 rem
- estimated exposure of upper large intestine [9]: approximately 3.3 rem
- estimated human effective dose (ED) [9]: approximately 1.26 rem
- % total counted ([1]; 2 min): 90.41 ± 5.38%
- Biodistribution Pancreas ([1]; 2 min): 0.90 ± 0.12 % dose/organ
- Biodistribution Pancrease ([1]; 2 min): 5.32 ± 0.08 % dose/g
- % total counted ([1]; 60 min): 81.43 ± 5.66%
- Biodistribution Pancreas ([1]; 60 min): 0.25 ± 0.11 % dose/organ
- Biodistribution Pancrease ([1]; 60 min): 1.35 ± 0.52 % dose/g
- % total counted ([1]; 120 min): 80.05 ± 6.33%
- Biodistribution Pancreas ([1]; 120 min): 0.19 ± 0.09 % dose/organ
- Biodistribution Pancrease ([1]; 120 min): 1.09 ± 0.46 % dose/g
- % total counted ([1]; 180 min): 81.95 ± 4.47%
- Biodistribution Pancreas ([1]; 180 min): 0.22 ± 0.03 % dose/organ
- Biodistribution Pancrease ([1]; 180 min): 1.29 ± 0.14 % dose/g
- logD [7]: 3.25
- logP ([7]; 1-octanol/buffer (0.1 M phosphate)): 3.25
SMILES: CN(C)c1ccc(-c2cn(-c3ccc(OCCO)c([123I])c3)nn2)cc1 [^123I-33, 2-(4-(4-(4-(dimethylamino)phenyl)-1H-1,2,3-triazol-1-yl)-2-[^123I]iodophenoxy)ethanol]
- brain penetration and clearance ([1]; normal mice): readily penetrated and was rapidly cleared from the brain
- labeling of Aβ plaques in sections from patients with pathologically confirmed AD (Aβ plaques): specifically labeled Aβ plaques
